{"source": "patent US20100041631A1", "about": "(priority 2006, published 2010)", "key": {"M. tuberculosis H37Rv": {"test_system": "M. tuberculosis H37Rv", "test": "Growth of H37Rv on cholesterol or 4-AD as growth substrate", "type": "cell-based", "settings": "for growth of H37Rv colonies on solid medium: substance as the sole organic substrate, no growth on control medium"}, "[1]": {"test_system": "M. bovis Bacillus Calmette-Guerin (BCG)", "type": "cell-based"}, "HsaDH37Rv": {"target": "HsaDH37Rv (Mycobacterium tuberculosis, UniProt P9WNH5)", "sequence (P9WNH5 whole entry, looked up)": "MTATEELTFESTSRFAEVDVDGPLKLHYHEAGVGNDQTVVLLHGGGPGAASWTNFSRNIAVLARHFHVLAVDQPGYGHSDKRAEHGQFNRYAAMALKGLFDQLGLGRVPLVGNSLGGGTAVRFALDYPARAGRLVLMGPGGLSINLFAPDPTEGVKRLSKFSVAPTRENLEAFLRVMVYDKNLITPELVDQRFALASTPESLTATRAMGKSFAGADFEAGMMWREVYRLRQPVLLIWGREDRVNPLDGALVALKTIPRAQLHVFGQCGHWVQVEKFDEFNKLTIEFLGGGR", "type": "biochemical, M. tuberculosis H37Rv", "settings": "for Vmax / Km: substrate of HsaDH37Rv, standard error in parentheses; for Km: cell extract, pH 8.0, 25 °C"}, "HsaCH37Rv": {"target": "HsaCH37Rv (Mycobacterium tuberculosis, UniProt P9WNW7)", "sequence (P9WNW7 whole entry, looked up)": "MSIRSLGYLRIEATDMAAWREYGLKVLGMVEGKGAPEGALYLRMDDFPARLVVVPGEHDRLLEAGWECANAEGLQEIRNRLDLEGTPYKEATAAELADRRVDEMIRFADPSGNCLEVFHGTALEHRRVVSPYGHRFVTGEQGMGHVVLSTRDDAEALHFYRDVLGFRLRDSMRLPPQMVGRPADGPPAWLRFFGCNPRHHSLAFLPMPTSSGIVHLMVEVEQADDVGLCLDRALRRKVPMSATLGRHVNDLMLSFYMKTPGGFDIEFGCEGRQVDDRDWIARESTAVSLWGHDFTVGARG", "type": "biochemical, M. tuberculosis H37Rv", "settings": "for Km: cell extract, pH 8.0, 25 °C"}, "M tuberculosis HsaC": {"target": "M tuberculosis HsaC (Mycobacterium tuberculosis, UniProt P9WNW7)", "sequence (P9WNW7 whole entry, looked up)": "as above", "test": "Inhibition of cloned M. tuberculosis HsaC, spectroscopic assay", "type": "biochemical", "settings": "in a manner consistent with oxidation of the active site Fe(II)"}, "[2]": {"settings": "substrate of HsaCH37Rv, standard error in parentheses"}}, "note": "Read-outs that look alike come from different tables or passages of the source.", "data": [{"smiles": "CC(C)CCC[C@@H](C)[C@H]1CC[C@H]2[C@@H]3CC=C4C[C@@H](O)CC[C@]4(C)[C@H]3CC[C@]12C", "note": "[cholesterol]", "values": [{"measurement": "growth of H37Rv in liquid culture", "setting": "M. tuberculosis H37Rv; phospholipid vesicles containing cholesterol versus vesicles containing no cholesterol", "result": "grew faster"}, {"measurement": "growth of H37Rv colonies on solid medium", "setting": "M. tuberculosis H37Rv", "result": "Colonies grew"}, {"measurement": "overall protein yield of BCG culture", "setting": "[1]; medium supplemented with 0.25 mM cholesterol (0 mM: 22+/−7)", "result": "46 ± 9", "unit": "µg/mL"}, {"measurement": "overall protein yield of BCG culture", "setting": "[1]; medium supplemented with 0.5 mM cholesterol (0 mM: 22+/−7)", "result": "70 ± 4", "unit": "µg/mL"}]}, {"smiles": "C/C(=C\\C=C(/O)C(=O)O)C(=O)CC[C@@H]1C(=O)CC[C@]2(C)C(=O)CC[C@@H]12", "note": "[4,9-DSHA, 4,5-9,10-diseco-3-hydroxy-5,9,17-trioxoandrosta-1(10),2-diene-4-oic acid]", "values": [{"measurement": "apparent specificity of hydrolysis relative to HOPDA", "setting": "HsaDH37Rv; […], higher than for HOPDA", "result": 34, "unit": "fold"}, {"measurement": "Vmax", "setting": "HsaDH37Rv; […]", "result": "0.06 (0.02) μM^s−1"}, {"measurement": "Km", "setting": "HsaDH37Rv", "result": 4, "unit": "µM"}]}, {"smiles": "C[C@]12CCC(=O)C=C1CC[C@@H]1[C@@H]2CC[C@]2(C)C(=O)CC[C@@H]12", "note": "[4-AD, 4-androstene-3,17-dione]", "values": [{"measurement": "growth of H37Rv colonies on solid medium", "setting": "M. tuberculosis H37Rv", "result": "Colonies grew"}]}, {"smiles": "O=C(O)C(O)=CC=CC(=O)c1ccccc1", "note": "[HOPDA, 2-hydroxy-6-oxo-6-phenylpentadienoate]", "values": [{"measurement": "Vmax", "setting": "HsaDH37Rv; […]", "result": "0.009 (0.003) μM^s−1"}, {"measurement": "Km", "setting": "HsaDH37Rv", "result": 19, "unit": "µM"}]}, {"smiles": "Oc1cccc(-c2ccccc2)c1O", "note": "[DHB]", "values": [{"measurement": "Vmax", "setting": "HsaCH37Rv", "result": "2.5 (0.4) μM^s−1"}, {"measurement": "Km", "setting": "HsaCH37Rv; [2]", "result": 8.5, "unit": "µM"}]}, {"smiles": "Oc1cccc(Cl)c1O", "note": "[3CC, 3-chlorocatechol]", "values": [{"measurement": "inactivation of HsaC", "setting": "M tuberculosis HsaC", "result": "inactivated HsaC"}]}, {"smiles": "Cc1ccc(O)c(O)c1CC[C@@H]1C(=O)CC[C@]2(C)C(=O)CC[C@@H]12", "note": "[3,4-DHSA, 3,4-dihydroxy-9,10-seconandrost-1,3,5(10)-triene-9,17-dione]", "values": [{"measurement": "apparent specificity of extradiol cleavage relative to DHB", "setting": "HsaCH37Rv", "result": 44, "unit": "fold"}, {"measurement": "Vmax", "setting": "HsaCH37Rv; substrate of HsaCH37Rv, […], standard error in parentheses", "result": "12 (4) μM^s−1"}, {"measurement": "Km", "setting": "HsaCH37Rv; [2]", "result": 0.9, "unit": "µM"}]}]}
